Source: patent US20170071902A1, “NOX INHIBITOR AND NFkB INHIBITOR CONTAINING METHOXYFLAVONE” (SUNTORY HOLDINGS LIMITED, priority 2014, published 2017)
Like-named read-outs stand apart in the source and are kept apart here.

Legend:
NOX (NADPH oxidase) = biological target: T1, NOX (NADPH oxidase) (Homo sapiens, UniProt P04839); experiment: NOX activity measurement in a cell-free system using a homogenate of differentiated HL-60 cells (NADPH consumption, fluorometry); format: biochemical; details: for NOX inhibitory activity (distribution %): share of the black ginger extract's NOX inhibitory activity per compound
T1 construct: endogenous in cells; host or cells: HL-60 cells differentiated with 1% DMSO, used as a sonicated homogenate supernatant (A1) or as viable cells (A2)
T1 sequence (P04839 2-570 limits assumed): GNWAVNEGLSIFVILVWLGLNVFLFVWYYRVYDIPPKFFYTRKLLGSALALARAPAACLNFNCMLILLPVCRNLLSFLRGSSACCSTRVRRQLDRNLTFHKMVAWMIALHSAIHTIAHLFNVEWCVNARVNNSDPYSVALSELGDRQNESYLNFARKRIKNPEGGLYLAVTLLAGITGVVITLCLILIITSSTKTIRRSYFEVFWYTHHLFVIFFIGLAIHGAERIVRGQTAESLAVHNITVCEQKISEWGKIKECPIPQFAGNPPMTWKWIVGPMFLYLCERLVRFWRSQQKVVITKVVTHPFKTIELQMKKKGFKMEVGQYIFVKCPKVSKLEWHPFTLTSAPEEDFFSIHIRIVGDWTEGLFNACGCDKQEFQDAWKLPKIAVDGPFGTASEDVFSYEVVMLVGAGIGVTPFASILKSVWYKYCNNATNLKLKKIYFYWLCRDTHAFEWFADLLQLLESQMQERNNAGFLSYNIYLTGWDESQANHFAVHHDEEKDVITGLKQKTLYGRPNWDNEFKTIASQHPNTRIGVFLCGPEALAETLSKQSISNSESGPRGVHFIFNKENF
T1 sequence (P13498 2-195 partner limits assumed): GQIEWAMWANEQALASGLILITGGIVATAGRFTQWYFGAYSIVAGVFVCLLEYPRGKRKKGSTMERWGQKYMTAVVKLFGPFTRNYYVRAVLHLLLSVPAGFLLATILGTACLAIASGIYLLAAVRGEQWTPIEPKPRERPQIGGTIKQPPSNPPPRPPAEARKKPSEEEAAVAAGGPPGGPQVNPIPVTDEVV
Excerpt: Human myeloid leukemia cell HL-60 repeats proliferation in an undifferentiated state but upon addition of DMSO (dimethyl sulfoxide), retinoic acid or the like, it is known to differentiate into mature granulocytes and lose the ability to proliferate, as accompanied by intracellular expression of NOX (NADPH oxidase) which also serves as an index for differentiation; the expressed NOX can be utilized as an enzyme source for evaluating NOX inhibitory activity.
To induce differentiation into NOX expressing granulocytes, undifferentiated HL-60 cells cultured in a 10% FBS supplemented RPMI 1640 medium were suspended in a 1% DMSO containing, 10% FBS supplemented RPM 11640 medium to give a density of 5×10^5 cells/ml, and the suspension was distributed among Petri dishes (i.d. 10 cm) in 15 ml portions and cultured in a CO2 incubator (37° C.) for three days; thereafter, 10 ml of a 1% DMSO containing, 10% FBS supplemented RPM 11640 medium was added into each of the Petri dishes and culture was performed for an additional three days, thus yielding differentiated HL-60 cells in which NOX was expressed. As described below, the differentiated HL-60 cells, either as a homogenate or in a viable state, were subjected to NOX activity measurement.
After being cooled with ice, the suspension was treated with a sonicator (Bioruptor UCD-250 HSA; product of Cosmo Bio Co., Ltd.) by repeating three cycles of a process under the condition of 4° C. or below that consisted of 20-sec disrupting at maximum power and 30-sec interval cooling, whereupon a cell homogenate was obtained. The homogenate was centrifuged at 1000 g for 4 minutes to remove debris; to the resulting supernatant, nine volumes of a reaction buffer (65 mM phosphate buffered solution containing 1 mM EGTA, 10 μM FAD and 170 mM sucrose; pH 7.0) were added to prepare a homogenate's supernatant for NOX activity measurement (equivalent to 1×10^7 cells/ml).
For reaction with NOX, 50 μl of the above-described cell homogenate was poured into each well of a 96-well microplate and after adding 25 μl of a 0.5 mM SDS solution as a NOX activator and 25 μl of a 0.4 mM NADPH solution as a substrate, the reaction was carried out at 25° C. for 30-90 minutes. The NOX activity was determined by measuring the rate of NADPH consumption through fluorometry (Ex: 355 nm/Em: 460 nm).

NFκB = NFκB inhibiting action: nitrous acid production in LPS-stimulated RAW 264.7 cells (Griess reagent); format: cell-based; details: Mus musculus, RAW264.7, 24 h; read-out: NFκB inhibition IC50
Description: It is known that when macrophage-like RAW 264.7 cells are stimulated with LPS (lipopolysaccharide), NFκB is activated, whereby the expression of iNOS (inducible NO synthetase) is enhanced, causing nitrous acid to accumulate in the culture broth due to the enzymatic activity of iNOS; the activation of NFκB can therefore be evaluated by measuring the buildup of nitrous acid in the culture broth.
RAW 264.7 cells were cultured in a 10% FBS supplemented RPMI 1640 culture broth. The cells were then suspended in the same culture broth to give a density of 4×10^5 cells/ml; the suspension was distributed on a 96-well microplate in 100 μl portions per well and subjected to pre-culture (in a CO2 incubator) for 24 hr. […] To measure NFκB inhibitory activity, a DMSO solution of each test sample was dissolved in the foregoing culture broth to make 3-fold serial dilutions having DMSO concentrations of 1% and less and absorbance was measured with and without adding the stimulant LPS.

[1] = Example 4, cell-free system using a homogenate of differentiated HL-60 cells, methoxyflavonoid comparison, read-out: IC50 (μM), NOX inhibitory activity
[2] = cell-free system using a homogenate
[3] = Example 5, cell-free system using a homogenate, compounds extracted and fractionated from black ginger, read-out: NOX inhibition IC50

Row | SMILES | IC50 (NOX (NADPH oxidase); [1]) | IC50 (NOX (NADPH oxidase); [3]) | IC50 (NFκB) | other results
1 | COc1cccc(/C=C/C(=O)c2ccccc2O)c1OC [2,3-Dimethoxy-2′-hydroxychalcone] | > 100 µM |  |  | 
2 | COc1ccc(CCC(=O)c2c(O)cc(OC)cc2O)cc1 [2′,6′-Dihydroxy-4,4′-dimethoxydihydrochalcone] | > 100 µM |  |  | 
3 | COc1cc(O)c(C(=O)/C=C/c2ccccc2)c(O)c1 [2′,6′-Dihydroxy-4′-methoxychalcone] | > 100 µM |  |  | 
4 | COc1ccc2c(=O)c(OC)c(-c3ccc(OC)c(OC)c3)oc2c1 [3,7,3′,4′-tetramethoxyflavone] | > 100 µM |  |  | 
5 | CC(=O)c1cc2ccccc2oc1=O [3-Acetylcoumarin] | > 100 µM |  |  | 
6 | O=c1cc(-c2ccc(O)c(O)c2)oc2ccccc12 [3′,4′-Dihydroxyflavone] | 75 µM |  |  | 
7 | COc1ccc(-c2cc(=O)c3ccccc3o2)cc1OC [3′,4′-Dimethoxyflavone] | 15 µM |  |  | 
8 | COc1ccc(/C=C/C(=O)c2ccccc2)cc1 [4-Methoxychalcone] | > 100 µM |  |  | 
9 | COc1ccc(C(=O)/C=C/c2ccccc2)cc1 [4′-Methoxychalcone] | > 100 µM |  |  | 
10 | COc1cc(-c2cc(=O)c3c(OC)c(OC)c(OC)cc3o2)cc(OC)c1OC [5,6,7,3′,4′,5′-Hexamethoxyflavone] | ~100 µM |  |  | 
11 | CC(=O)c1c(O)ccc2ccc(=O)oc12 [8-Acetyl-7-hydroxycoumarin] | > 100 µM |  |  | 
12 | COc1cc(OC)c2c(=O)cc(-c3ccc(OC)c(OC)c3)oc2c1 [KPEt-21, 5,7,3′,4′-Tetramethoxyflavone] | 8 µM | 38 µM | 6 µM | NOX inhibitory activity (distribution %) (NOX (NADPH oxidase); Example 5): 12%; NOX inhibitory activity (in words) (NOX (NADPH oxidase); [2]): strong NOX inhibitory activity
13 | COc1ccc(-c2oc3cc(OC)cc(OC)c3c(=O)c2OC)cc1 [KPEt-262, 3,5,7,4′-Tetramethoxyflavone] |  | > 100 µM | 32 µM | 

Second part, led by results:

Row | IC50 (NOX (NADPH oxidase); [1]) | IC50 (NOX (NADPH oxidase); [3]) | IC50 (NFκB) | SMILES | other results
14 | 80 µM |  |  | COc1ccc(-c2cc(=O)c3c(OC)c(OC)c(OC)c(OC)c3o2)cc1OC [5,6,7,8,3′,4′-Hexamethoxyflavone] | NOX inhibitory activity (in words) (NOX (NADPH oxidase); [2]): not found to have any strong NOX inhibitory activity
15 | > 100 µM |  |  | COc1cc(OC)c2c(=O)cc(-c3cc(OC)c(OC)c(OC)c3)oc2c1 [5,7,3′,4′,5′-Pentamethoxyflavone] | 
16 | ~100 µM |  |  | COc1ccc(-c2oc3cc(O)cc(O)c3c(=O)c2OC)cc1O [5,7,3′-Trihydroxy-3,4′-dimethoxyflavone] | 
17 | > 100 µM |  |  | COc1cc(C2CC(=O)c3c(O)cc(O)cc3O2)cc(OC)c1OC (centres unmarked) [5,7-Dihydroxy-3′,4′,5′-trimethoxyflavanone] | 
18 | > 100 µM |  |  | COc1cc(C)c2c(=O)c(-c3ccccc3)coc2c1 [5-Methyl-7-methoxy-isoflavone] | 
19 | ~100 µM |  |  | O=c1cc(-c2ccc(O)c(O)c2)oc2c(O)c(O)ccc12 [7,8,3′,4′-Tetrahydroxyflavone] | 
20 | ~100 µM |  |  | COc1ccc(-c2cc(=O)c3ccc(OC)c(OC)c3o2)cc1OC [7,8,3′,4′-Tetramethoxyflavone] | 
21 | > 100 µM |  |  | COc1cc2ccc(=O)oc2c(C(C)=O)c1OC [8-Acetyl-6,7-dimethoxycoumarin] | 
22 | > 100 µM |  |  | COc1c(O)cc2ccc(=O)oc2c1C(C)=O [8-Acetyl-6-hydroxy-7-methoxycoumarin] | 
23 | > 100 µM |  |  | COc1ccc2ccc(=O)oc2c1C(C)=O [8-Acetyl-7-methoxycoumarin] | 
24 | 23 µM | 70 µM | 32 µM | COc1cc(OC)c2c(=O)c(OC)c(-c3ccc(OC)c(OC)c3)oc2c1 [KPEt-22, 3,5,7,3′,4′-Pentamethoxyflavone] | NOX inhibitory activity (distribution %) (NOX (NADPH oxidase); Example 5): 45%; NOX inhibitory activity (in words) (NOX (NADPH oxidase); [2]): strong NOX inhibitory activity
25 |  | 53 µM | 7 µM | COc1cc(OC)c2c(=O)cc(-c3ccccc3)oc2c1 [KPEt-23, 5,7-Dimethoxyflavone] | NOX inhibitory activity (distribution %) (NOX (NADPH oxidase); Example 5): 19%
26 |  | 53 µM | 7 µM | COc1ccc(-c2cc(=O)c3c(OC)cc(OC)cc3o2)cc1 [KPEt-25, 5,7,4′-Trimethoxyflavone] | NOX inhibitory activity (distribution %) (NOX (NADPH oxidase); Example 5): 21%
27 |  | > 100 µM | 55 µM | COc1cc(O)c2c(=O)c(OC)c(-c3ccc(OC)c(OC)c3)oc2c1 [KPEt-41, 5-hydroxy-3,7,3′,4′-Tetramethoxyflavone] | 
28 |  | > 100 µM | 27 µM | COc1cc(OC)c2c(=O)c(OC)c(-c3ccccc3)oc2c1 [KPEt-261, 3,5,7-Trimethoxyflavone] | 
29 |  | > 100 µM | 42 µM | COc1cc(O)c2c(=O)cc(-c3ccccc3)oc2c1 [KPEt-421, 5-hydroxy-7-Methoxyflavone] | 
30 |  | > 100 µM | 56 µM | COc1ccc(-c2cc(=O)c3c(O)cc(OC)cc3o2)cc1 [KPEt-422, 5-hydroxy-7,4′-Dimethoxyflavone] | 
31 |  | > 100 µM | 29 µM | COc1cc(O)c2c(=O)c(OC)c(-c3ccccc3)oc2c1 [KPEt-431, 5-hydroxy-3,7-Dimethoxyflavone] | 
32 |  | > 100 µM | 30 µM | COc1ccc(-c2oc3cc(OC)cc(O)c3c(=O)c2OC)cc1 [KPEt-432, 5-hydroxy-3,7,4′-Trimethoxyflavone] | 
33 | 19 µM |  |  | CC(=O)OC(C)(C)[C@@H]1Cc2c(ccc3ccc(=O)oc23)O1 [o-Acetylcolumblanetin] | 
